# Tests used:
# [1] = biological target: GDP-bound HRAS wild-type protein (Homo sapiens, UniProt P01112); assay: Binding to HRAS by surface plasmon resonance (SPR), Single Cycle Kinetics; details: ratio of KD for GDP-bound HRAS wild-type protein to KD for KRAS, SPR
# [2] = system: human lung cancer strain NCI-H441; assay: cells; details: NCI-H441, 96 h, read-out: NCI-H441 IC50 (nM), NCI-H441 cell proliferation, 4 days, CellTiter-Glo;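 further: cell proliferation inhibition after four days measured by CellTiter-Glo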
# [3] = biological target: GDP-bound NRAS wild-type protein (Homo sapiens, UniProt P01111); assay: Binding to NRAS by surface plasmon resonance (SPR), Single Cycle Kinetics; details: ratio of KD for GDP-bound NRAS wild-type protein to KD for KRAS, SPR
# Chain of GDP-bound NRAS wild-type protein (P01111 whole entry): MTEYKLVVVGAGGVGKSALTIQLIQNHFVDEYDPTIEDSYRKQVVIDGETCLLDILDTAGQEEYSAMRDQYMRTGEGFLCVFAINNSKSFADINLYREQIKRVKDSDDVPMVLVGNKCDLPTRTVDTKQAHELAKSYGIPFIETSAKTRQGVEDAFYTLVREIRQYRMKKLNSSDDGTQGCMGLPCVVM
# Chain of GDP-bound HRAS wild-type protein (P01112 whole entry): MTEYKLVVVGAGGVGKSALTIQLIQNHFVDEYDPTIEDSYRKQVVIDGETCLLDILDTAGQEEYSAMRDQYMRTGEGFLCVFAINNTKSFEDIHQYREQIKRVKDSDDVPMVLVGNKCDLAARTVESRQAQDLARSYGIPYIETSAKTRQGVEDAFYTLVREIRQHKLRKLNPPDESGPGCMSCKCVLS
SMILES,IC50 [2],HRAS/KRAS (KD ratio) [1],NRAS/KRAS (KD ratio) [3]
CC[C@H](C)[C@@H]1NC(=O)[C@H](C2CC2)N(C)C(=O)C[C@@H](C(=O)N(C)CC)N(C)C(=O)[C@H](C2CCCC2)N(C)C(=O)C2(CC(C)(C)C2)NC(=O)[C@@H]2C[C@H](C)CN2C(=O)[C@H](CCc2cc(F)c(C(F)(F)F)c(F)c2)NC(=O)CN(C)C(=O)[C@H](Cc2ccc(C(F)(F)F)cc2)N2CC/C=C\C[C@@H](C2=O)N(C)C(=O)CN(C)C1=O [PP1980],30.1 nM,B (a compound having 3 or more and less than 10 is denoted as B),A (a compound having 10 or more and less than 20 is denoted as A)
CCC[C@H]1C(=O)N[C@@H]([C@@H](C)CC)C(=O)N(C)CC(=O)N(C)[C@H]2C/C=C\CCN(C2=O)[C@@H](Cc2ccc(C)cc2)C(=O)N(C)CC(=O)N[C@@H](CCc2ccc(C(F)(F)F)c(OC)c2)C(=O)N2C[C@H](C)C[C@H]2C(=O)NC2(CCC2)C(=O)N(C)[C@@H](C2CCCC2)C(=O)N(C)[C@H](C(=O)N(C)C)CC(=O)N1C [PP1859],28.8 nM,A (a compound having 10 or more and less than 20 is denoted as A),A (a compound having 10 or more and less than 20 is denoted as A)
CCCN(C)C(=O)[C@@H]1CC(=O)N(C)[C@@H](CC(C)C)C(=O)N[C@@H]([C@@H](C)CC)C(=O)N(C)CC(=O)N(C)[C@H]2C/C=C\CCN(C2=O)[C@@H](Cc2ccc(C(F)(F)F)cc2)C(=O)N(C)CC(=O)N[C@@H](CCc2cc(F)c(C(F)(F)F)c(F)c2)C(=O)N2C[C@H](OCC)C[C@H]2C(=O)NC2(COC2)C(=O)N(C)[C@@H](C2CCCC2)C(=O)N1C [PP1938],34.6 nM,A (a compound having 10 or more and less than 20 is denoted as A),AA (a compound having 20 or more is denoted as AA)
CCCN(C)C(=O)[C@@H]1CC(=O)N(C)[C@@H](COCC)C(=O)N[C@@H]([C@@H](C)CC)C(=O)N(C)CC(=O)N(C)[C@H]2C/C=C\CCN(C2=O)[C@@H](Cc2ccc(C(F)(F)F)cc2)C(=O)N(C)CC(=O)N[C@@H](CCc2ccc(C(F)(F)F)c(OC)c2)C(=O)N2C[C@@H](C)C[C@H]2C(=O)NC2(CCC2)C(=O)N(C)[C@@H](C2CCCC2)C(=O)N1C [PP2025],13.4 nM,B (a compound having 3 or more and less than 10 is denoted as B),A (a compound having 10 or more and less than 20 is denoted as A)
CC[C@H](C)[C@@H]1NC(=O)[C@H](CC(C)C)N(C)C(=O)C[C@@H](C(=O)N(CC)CC)N(C)C(=O)[C@H](C2CCCC2)N(C)C(=O)C2(CCC2)NC(=O)[C@@H]2C[C@@H](C)CN2C(=O)[C@H](CCc2ccc(C(F)(F)F)c(OC)c2)NC(=O)CN(C)C(=O)[C@H](Cc2ccc(C)cc2)N2CC/C=C\C[C@@H](C2=O)N(C)C(=O)CN(C)C1=O [PP1849],37.1 nM,A (a compound having 10 or more and less than 20 is denoted as A),A (a compound having 10 or more and less than 20 is denoted as A)
CCCN(C)C(=O)[C@@H]1CC(=O)N(C)[C@@H](CC(F)F)C(=O)N[C@@H]([C@@H](C)CC)C(=O)N(C)CC(=O)N(C)[C@H]2C/C=C\CCN(C2=O)[C@@H](Cc2ccc(C(F)(F)F)cc2)C(=O)N(C)CC(=O)N[C@@H](CCc2cc(F)c(C(F)(F)F)c(F)c2)C(=O)N2C[C@@H](C)C[C@H]2C(=O)NC2(CCC2)C(=O)N(C)[C@@H](C2CCCC2)C(=O)N1C [PP2000],17.7 nM,B (a compound having 3 or more and less than 10 is denoted as B),A (a compound having 10 or more and less than 20 is denoted as A)
CC[C@H](C)[C@@H]1NC(=O)[C@H](CC2CC2)N(C)C(=O)C[C@@H](C(=O)N(C)CC)N(C)C(=O)[C@H](C2CCCC2)N(C)C(=O)C2(CC(C)(C)C2)NC(=O)[C@@H]2C[C@H](C)CN2C(=O)[C@H](CCc2ccc(C(F)(F)F)c(OC)c2)NC(=O)CN(C)C(=O)[C@H](Cc2ccc(C)cc2)N2CC/C=C\C[C@@H](C2=O)N(C)C(=O)CN(C)C1=O [PP1899],15.1 nM,B (a compound having 3 or more and less than 10 is denoted as B),A (a compound having 10 or more and less than 20 is denoted as A)
CCC[C@H]1C(=O)N[C@@H]([C@@H](C)CC)C(=O)N(C)CC(=O)N(C)[C@H]2C/C=C\CCN(C2=O)[C@@H](Cc2ccc(C)cc2)C(=O)N(C)CC(=O)N[C@@H](CCc2ccc(C(F)(F)F)c(Cl)c2)C(=O)N2C[C@H](C)C[C@H]2C(=O)NC2(CC(C)(C)C2)C(=O)N(C)[C@@H](C2CCCC2)C(=O)N(C)[C@H](C(=O)N(C)CC)CC(=O)N1C [PP1894],15.9 nM,A (a compound having 10 or more and less than 20 is denoted as A),A (a compound having 10 or more and less than 20 is denoted as A)
CC[C@H](C)[C@@H]1NC(=O)[C@H](CC(C)C)N(C)C(=O)C[C@@H](C(=O)N(C)C)N(C)C(=O)[C@H](C2CCCC2)N(C)C(=O)C2(CCC2)NC(=O)[C@@H]2C[C@H](C)CN2C(=O)[C@H](CCc2ccc(C(F)(F)F)c(OC)c2)NC(=O)CN(C)C(=O)[C@H](Cc2ccc(C)cc2)N2CC/C=C\C[C@@H](C2=O)N(C)C(=O)CN(C)C1=O [PP1865],36 nM,B (a compound having 3 or more and less than 10 is denoted as B),A (a compound having 10 or more and less than 20 is denoted as A)
CC[C@H](C)[C@@H]1NC(=O)[C@H](CC2CC2)N(C)C(=O)C[C@@H](C(=O)N(C)C)N(C)C(=O)[C@H](C2CCCC2)N(C)C(=O)C2(CCC2)N(C)C(=O)[C@@H]2C[C@@H](C)CN2C(=O)[C@H](CCc2cc(F)c(C(F)(F)F)c(F)c2)NC(=O)CN(C)C(=O)[C@H](Cc2ccc(C)cc2)N2CC/C=C\C[C@@H](C2=O)N(C)C(=O)[C@@H]2CCCN2C1=O [PP1801],13 nM,B (a compound having 3 or more and less than 10 is denoted as B),A (a compound having 10 or more and less than 20 is denoted as A)

# These reach a lower IC50 [2]. Values come first.
IC50 [2],SMILES,HRAS/KRAS (KD ratio) [1],NRAS/KRAS (KD ratio) [3]
9.8 nM,CC[C@H](C)[C@@H]1NC(=O)[C@H](CC)N(C)C(=O)C[C@@H](C(=O)N(C)C)N(C)C(=O)[C@H](C2CCCC2)N(C)C(=O)C2(CC(C)(C)C2)NC(=O)[C@@H]2C[C@@H](C)CN2C(=O)[C@H](CCc2ccc(C(F)(F)F)c(Cl)c2)NC(=O)CN(C)C(=O)[C@H](Cc2ccc(C)cc2)N2CC/C=C\C[C@@H](C2=O)N(C)C(=O)CN(C)C1=O [PP1846],B (a compound having 3 or more and less than 10 is denoted as B),A (a compound having 10 or more and less than 20 is denoted as A)
6.2 nM,CC[C@H](C)[C@@H]1NC(=O)[C@H](C2CC2)N(C)C(=O)C[C@@H](C(=O)N(C)C)N(C)C(=O)[C@H](C2CCCC2)N(C)C(=O)C2(CCC2)N(C)C(=O)[C@@H]2C[C@@H](C)CN2C(=O)[C@H](CCc2cc(F)c(C(F)(F)F)c(F)c2)NC(=O)CN(C)C(=O)[C@H](Cc2ccc(C)cc2)N2CC/C=C\C[C@@H](C2=O)N(C)C(=O)CN(C)C1=O [PP1788],B (a compound having 3 or more and less than 10 is denoted as B),B (a compound having 3 or more and less than 10 is denoted as B)
2.7 nM,CCO[C@@H]1C[C@H]2C(=O)NC3(CCC3)C(=O)N(C)[C@@H](C3CCCC3)C(=O)N(C)[C@H](C(=O)N(C)CC)CC(=O)N(C)[C@@H](C3CCC3)C(=O)N[C@@H]([C@@H](C)CC)C(=O)N(C)CC(=O)N(C)[C@H]3C/C=C\CCN(C3=O)[C@@H](Cc3ccc(C(F)(F)F)cc3)C(=O)N(C)CC(=O)N[C@@H](CCc3ccc(C(F)(F)F)c(OC)c3)C(=O)N2C1 [PP2022],A (a compound having 10 or more and less than 20 is denoted as A),A (a compound having 10 or more and less than 20 is denoted as A)
2 nM,CCO[C@@H]1C[C@H]2C(=O)NC3(CCC3)C(=O)N(C)[C@@H](C3CCCC3)C(=O)N(C)[C@H](C(=O)N(C)CC)CC(=O)N(C)[C@@H](CC3CCC3)C(=O)N[C@@H]([C@@H](C)CC)C(=O)N(C)CC(=O)N(C)[C@H]3C/C=C\CCN(C3=O)[C@@H](Cc3ccc(C(F)(F)F)cc3)C(=O)N(C)CC(=O)N[C@@H](CCc3cc(F)c(C(F)(F)F)c(F)c3)C(=O)N2C1 [PP1667],A (a compound having 10 or more and less than 20 is denoted as A),A (a compound having 10 or more and less than 20 is denoted as A)
3.7 nM,CCO[C@@H]1C[C@H]2C(=O)NC3(CCC3)C(=O)N(C)[C@@H](C3CCCC3)C(=O)N(C)[C@H](C(=O)N(C)CC)CC(=O)N(C)[C@@H](CC(F)(F)F)C(=O)N[C@@H]([C@@H](C)CC)C(=O)N(C)CC(=O)N(C)[C@H]3C/C=C\CCN(C3=O)[C@@H](Cc3ccc(C(F)(F)F)cc3)C(=O)N(C)CC(=O)N[C@@H](CCc3cc(F)c(C(F)(F)F)c(F)c3)C(=O)N2C1 [PP1701],A (a compound having 10 or more and less than 20 is denoted as A),A (a compound having 10 or more and less than 20 is denoted as A)
2.5 nM,CCCOC[C@H]1C(=O)N[C@@H]([C@@H](C)CC)C(=O)N(C)CC(=O)N(C)[C@H]2C/C=C\CCN(C2=O)[C@@H](Cc2ccc(C(F)(F)F)cc2)C(=O)N(C)CC(=O)N[C@@H](CCc2ccc(C(F)(F)F)c(OC)c2)C(=O)N2C[C@H](OCC)C[C@H]2C(=O)NC2(CCC2)C(=O)N(C)[C@@H](C2CCCC2)C(=O)N(C)[C@H](C(=O)N(C)CCC)CC(=O)N1C [PP2017],A (a compound having 10 or more and less than 20 is denoted as A),A (a compound having 10 or more and less than 20 is denoted as A)
8.7 nM,CCC[C@H]1C(=O)N[C@@H]([C@@H](C)CC)C(=O)N(C)CC(=O)N(C)[C@H]2C/C=C\CCN(C2=O)[C@@H](Cc2ccc(C)cc2)C(=O)N(C)CC(=O)N[C@@H](CCc2cc(F)c(C(F)(F)F)c(F)c2)C(=O)N2CCC[C@H]2C(=O)N(C)C2(CCC2)C(=O)N(C)[C@@H](C2CCCC2)C(=O)N(C)[C@H](C(=O)N(C)C)CC(=O)N1C [PP1794],B (a compound having 3 or more and less than 10 is denoted as B),A (a compound having 10 or more and less than 20 is denoted as A)
